Measured values: patent publication US10327447B2, “Phosphonate functional antimicrobial coatings for metal surfaces” (NANO SAFE COATINGS INCORPORATED, priority 2013, dated 2019)

Tests used:
[1] = system: Staphylococcus aureus; assay: Minimum inhibitory concentration determination; type: cell-based
Text: Test organisms included gram-positive and gram-negative bacterial strains: Staphylococcus aureus, Listeria monocytogenes, Salmonella interiditis, and Escherichia coli.

[2] = system: Salmonella interiditis; assay: Minimum inhibitory concentration determination; type: cell-based; conditions: 1% stock solution in H2O, stabilized or no stabilizer
Description: (§1) Solutions of phosphonate antimicrobials (0.01 g/mL or 1%) were dissolved in H2O or ethanol, inoculated with the test organism and serially diluted from 10^−1-10^−3, representing a dilution range from 0.01 g/mL to 0.00001 g/mL, followed by plate counts to determine the minimum inhibitory concentration (MIC) values. Test organisms included gram-positive and gram-negative bacterial strains: Staphylococcus aureus, Listeria monocytogenes, Salmonella interiditis, and Escherichia coli.
(§2) Sample 1 was a 1% solution of compound 3; sample 2 was 1% solution of the sodium salt of compound 3; sample 3 was a 1% solution of compound 3 prepared by HCl dealkylation of N-(3-diisopropoxyphosphorylpropyl)-N,N-dimethyloctadecan-1-ammonium bromide.

[3] = system: Listeria monocytogenes; assay: Minimum inhibitory concentration determination; type: cell-based; conditions: 1% stock solution in H2O, stabilized or no stabilizer
Description: as §1, §2

[4] = system: Escherichia coli; assay: Minimum inhibitory concentration determination; type: cell-based; conditions: 1% stock solution in H2O, stabilized or no stabilizer
Description: as §1, §2

[5] = system: bacterial strains; conditions: strain not stated; cited from earlier work
[6] = system: Escherichia coli; assay: Contact killing on treated stainless steel coupons (large droplet inoculation); type: cell-based; conditions: for change in colony forming units (cfu): in as little as four hours
[7] = system: Pseudomonas sp. CT07; assay: as above; type: cell-based; conditions: in as little as four hours
[8] = system: Arthrobacter; assay: Antimicrobial surface treatment durability (retest after saline storage); type: cell-based; conditions: treated titanium coupons stored in saline for 24 hours, washed, dried, re-innoculated
Description: Titanium metal coupons treated with compound 2 as in Example 28 were further tested for surface treatment durability. The treated coupons were stored in saline for 24 hours from the first antimicrobial trial, removed, dried, washed with distilled H2O, dried re-innoculated with Arthrobacter and retested.

[9] = system: Arthrobacter; assay: Contact killing on treated stainless steel coupons (large droplet inoculation); type: cell-based; conditions: in as little as four hours
[10] = system: Staphylococcus aureus; assay: as above; type: cell-based; conditions: in as little as four hours
[11] = system: S. aureus; assay: Contact killing on treated titanium coupons; type: cell-based; conditions: after three hours of drying on the titanium surface
Description: (§3) A one inch by inch TiO2 square was sanded with 600 grain size sand paper, followed by an ethanol (EtOH) rinse. Samples were stored in a 120° C. oven prior to use. A 10 mM solution of compound 3 in EtOH was aerosol spayed onto the TiO2 square, allowed to air dry and placed into 120° C. oven overnight to anneal the compound followed by an EtOH rinse. Spaying, annealing and rinsing were repeated two more times.
(§4) The following bacteria were tested: Pseudomonas sp. CT07, Salmonella enteriditis, Klebsiella pneumonia, Listeria monocytogenes, Arthrobacter, Staphylococcus aureus, Pseudomonas aeruginosa PA01 and Escherichia coli. The preparation of the inoculant was performed by growing overnight cultures (10^5-10^8 cfu/ml) in 10% tryptic soy broth at room temperature and with agitation. The cells were then washed from the broth by using a centrifuge at 9000×g for 2 minutes. This step was performed to remove a nutrition source for the bacteria during the test phase.
(§5) Stainless steel coupons were treated by overnight immersion in a 1% ethanolic solution (aqueous solutions may also be used) of antimicrobial phosphonate and an overnight cure at 100° C. Untreated control (“C”), compound 2 (“S1”), compound 3 (“S2”) and Bio-Protect® AM500 silicone quaternary ammonium salt (N-(3-(trimethoxy)silylpropyl)-N,N-dimethyloctadecan-1-ammonium chloride) treated (“BSC”) stainless steel coupons were then inoculated with 0.1 mL of the overnight bacterial inoculant and were then placed in a fumehood to allow the samples to dry for 2 hours. After the appropriate time lapse the coupons were then placed into a 10 mL tube of sterile 0.9% saline and vigorously vortexed for a minute to remove the adherent cells. A dilution series was made from this solution and the series was plated onto 10% tryptic soy agar plates for enumeration. This was again repeated after 4 hours, 6 hours and 24 hours of drying.
(§6) Titanium metal coupons were treated similarly as above and tested for antibacterial activity against Salmonella and S. aureus.

[12] = system: Salmonella; assay: Contact killing on treated titanium coupons; type: cell-based; conditions: after three hours of drying on the titanium surface
Description: as §3, §4, §5, §6

[13] = system: Klebsiella pneumonia; assay: Contact killing on treated stainless steel coupons (large droplet inoculation); type: cell-based; conditions: in as little as four hours
[14] = system: Salmonella enteriditis; assay: as above; type: cell-based; conditions: in as little as four hours
[15] = system: Pseudomonas PA01; assay: as above; type: cell-based, Pseudomonas aeruginosa PA01; conditions: in as little as four hours
[16] = system: Listeria monocytogenes; assay: as above; type: cell-based
[17] = system: P. aeroguinosa; assay: Agar testing of treated titanium coupons; type: cell-based; conditions: titanium coupons affixed to agar petri dishes; control fully colonized
Text: The titanium coupon samples were subjected to agar testing in which the samples were affixed to agar petri dishes and inoculated with P. aeroguinosa.

| SMILES | melting point [°C] | change in colony forming units (cfu) [7] | change in colony forming units (cfu) [9] | change in colony forming units (cfu) [10] | bacterial colonies (cfu) on treated titanium surface [11] | bacterial colonies (cfu) on treated titanium surface [12] | change in colony forming units (cfu) [13] | change in colony forming units (cfu) [14] | change in colony forming units (cfu) [15] | antibacterial activity compared to BSC [16] | change in colony forming units (cfu) [6] | also measured |
| --- | --- | --- | --- | --- | --- | --- | --- | --- | --- | --- | --- | --- |
| CCCCCCCCCCCCCCCCCC[N+](C)(C)CCCP(=O)(OC(C)C)OC(C)C.[Br-] | 54 to 55 | – | – | – | – | – | – | – | – | – | – | – |
| CCCCCCCCCCCCCCCCCC[N+](C)(C)CCC[Si](OC)(OC)OC.[Cl-] [BSC, N-(3-(trimethoxy)silylpropyl)-N,N-dimethyloctadecan-1-ammonium chloride] | – | – | – | – | – | – | – | – | – | – | – | concentration at which strain was inhibited ([1]; 1% stock solution in H2O, stabilized or no stabilizer): ≤ 100 µg/mL; concentration at which strain was inhibited [2]: ≤ 100 µg/mL; concentration at which strain was inhibited [3]: ≤ 100 µg/mL; concentration at which strain was inhibited [4]: ≤ 100 µg/mL; literature MIC values [5]: 84 µg/mL; time to eradication compared to the four hours of S1/S2 [6]: took longer |
| CCCCCCCCCCCCCCCCCC[N+](C)(C)CCCP(=O)(OCC)OCC.[Br-] [compound 2, N-(3-diethoxyphosphorylpropyl)-N,N-dimethyloctadecan-1-ammonium Bromide] | – | eradication | eradication | eradication | significant reduction of bacterial colonies | significant reduction of bacterial colonies | eradication | eradication | eradication | comparable antibacterial activity | eradication | colony reductions [8]: 10^6 to 0; inhibition of S. aureus ([1]; 1% solution, even at 100 μg/mL concentrations): highly inhibitory; change in colony forming units (cfu) ([16]; after 24 hours): completely eradicated; visible colonies around or on the samples [17]: no visible colonies |
| CCCCCCCCCCCCCCCCCC[N+](C)(C)CCCP(=O)(O)O [compound 3, N-(3-phosphonopropyl)-N,N-dimethyloctadecan-1-ammonium Bromide] | 118 to 120 | eradication | eradication | eradication | eradication | eradication | eradication | eradication | eradication | comparable antibacterial activity | eradication | – |
